This is an account of results in patent US11078189B2, “Pharmaceutical compounds” (REVIRAL LIMITED, priority 2017, dated 2021).

In data set [1] the target is T1, RSV fusion (pCDNA3.1_A2_F in HEK 293T cells) (Human respiratory syncytial virus A, UniProt P03420).
T1 construct: expressed in transfected cells; host or cells: HEK 293T (ECACC 12022001)
The data set can be described thus: RSV fusion assay. Format: cell-based. As for the experimental part: HEK 293T ((ECACC 12022001) cells were cultured in T75 culture flasks in Dulbecco's medium (DMEM) containing 10% Foetal Bovine serum (FBS), 50 units per mL Penicillin and 50 μg/mL Streptomycin and warmed to 37° C. prior to use. The cells were passaged by first washing briefly with 5 mL Phosphate buffered saline (PBS), followed by addition of 2 mL of Trypsin Ethylenediaminetetraacetic acid (EDTA) to detach the cells. Once cells had detached from the flask, 8 mL media was then added to and the cells dispersed via pipetting against the bottom of the flask.
The cells were counted and diluted to 3×10^5 cells/ml in fresh media. Two T75 flasks were each seeded with 15.6 mL diluted cells, cells were also subcultured at a ratio of between 1:2 and 1:10, to continue the stock. The flasks were then incubated for 24 h at 37° C. and 5% CO2.
The plasmid DNA (for pFR-Luc and pcDNA3. 1_Gal4/NFKB) to be transfected into the HEK 293T cells was first prepared in serum free media (Opti-MEM, Invitrogen), containing the transfection reagent FuGENE® 6 (Promega). Serum free media was placed in a 1.5 mL eppendorf tube then the FuGENE 6 was added into the media. The tube was vortexed for 1 s before being incubated at RT for 5 min. 7.79 ng of both pFR_luc and pCDNA3.1_A2_F plasmid DNA were added to tube 1 and 7.79 ng of pCDNA3.1_GAL4-NF-κB plasmid to tube 2. The tubes were vortexed for 1 second and then incubated at room temperature for 15 min. Each transfection mixture was then added into the media of one of the T75 flasks of 293T cells. Cells were cultured for 24h at 37° C., 5% CO2 in a humidified incubator.
Compounds were diluted (in a polypropylene round-bottomed 96 well plate) 1:3 in a twelve point dilution curve to give top [final] of either 25 μM, 3 μM, 1 μM or 500 nM. A control compound was included in every assay at a top concentration of 3 μM. Transfected cells were counted and diluted to 4×10^5 cells/mL in fresh media. 50 μL of transfection population 1 were added to all wells of the 96 well flat bottom white opaque assay plates. 100 μL diluted compound (2 rows per compound), control compound (one row) and controls (DMSO (0% inhibition, four wells), 3 μM positive control (100% inhibition, four wells) and media (transfection population 1 only, four wells) were added to the appropriate wells. 50 μL of the diluted (4×10^5 cells/mL) population 2 cells when then added to all wells, except the four wells of transfection population 1 only where an extra 50 μL of this cells population was added.
The plates were then incubated for 24 h at 37° C. and 5% CO2. After this time, 100 μL was removed from all wells and 60 μL of ONE-Glo™ (Promega) reagent, pre-equilibrated to room temperature, was added. Plates were then incubated for 3 min at room temperature before luminescence was read, using the ONE-Glo protocol, on the GloMax Explorer System (Promega) multimode reader. Analysis was carried out in Dotmatics software. All raw data were background subtracted (subtraction of mean 3 μM positive control value), before IC50 calculation.

The next data set relates to MDR1. The data set can be described thus: in vitro. It is filed as in vitro ADME. Conditions: dog, MDCK-MDR1. As for the experimental part:
MDR1-MDCK cells obtained from the NIH (Rockville, Md., USA) are used between passage numbers 6-30. Cells are seeded onto Millipore Multiscreen Transwell plates at 3.4×10^5 cells/cm^2. The cells are cultured in DMEM and media is changed on day 3. On day 4 the permeability study is performed. Cell culture and assay incubations are carried out at 37° C. in an atmosphere of 5% CO2 with a relative humidity of 95%. On the day of the assay, the monolayers are prepared by rinsing both basolateral and apical surfaces twice with Hanks Balanced Salt Solution (HBSS) at the desired pH warmed to 37° C. Cells are then incubated with HBSS at the desired pH in both apical and basolateral compartments for 40 min to stabilise physiological parameters.
The dosing solutions are prepared by diluting test compound with assay buffer to give a final test compound concentration of 10 μM (final DMSO concentration of 1% v/v). The fluorescent integrity marker lucifer yellow is also included in the dosing solution. Analytical standards are prepared from test compound DMSO dilutions and transferred to buffer, maintaining a 1% v/v DMSO concentration.
For assessment of A-B permeability, HBSS is removed from the apical compartment and replaced with test compound dosing solution. The apical compartment insert is then placed into a companion plate containing fresh buffer (containing 1% v/v DMSO). For assessment of B-A permeability, FIBSS is removed from the companion plate and replaced with test compound dosing solution. Fresh buffer (containing 1% v/v DMSO) is added to the apical compartment insert, which is then placed into the companion plate. At 60 min the apical compartment inserts and the companion plates are separated and apical and basolateral samples diluted for analysis. Test compound permeability is assessed in duplicate. Compounds of known permeability characteristics are run as controls on each assay plate.
Test and control compounds are quantified by LC-MSMIS cassette analysis using an 8-point calibration with appropriate dilution of the samples. The starting concentration (C0) is determined from the dosing solution and the experimental recovery calculated from C0 and both apical and basolateral compartment concentrations. The integrity of the monolayer throughout the experiment is checked by monitoring lucifer yellow permeation using fluorimetric analysis. Lucifer yellow permeation is high if monolayers have been damaged.

Data set [2] in a line: Liver microsomal stability, rat. It is filed as in vitro ADME. Conditions: pooled liver microsomes, pH 7.4; rat liver microsomes 0.5 mg/mL; 3 μM compound; read-out: Liver Microsoinal Stability t1/2, rat. As for the experimental part:
(§1) Pooled liver microsomes are purchased from a reputable commercial supplier and stored at −80° C. prior to use. Microsomes (final protein concentration 0.5 mg/mL), 0.1 M phosphate buffer pH 7.4 and test compound (final substrate concentration 3 μM; final DMSO concentration 0.25%) are pre-incubated at 37° C. prior to the addition of NADPH (final concentration 1 mM) to initiate the reaction. The final incubation volume is 50 uL. A control incubation is included for each compound tested where 0.1 M phosphate buffer pH 7.4 is added instead of NADPH (minus NADPH). Two control compounds are included with each species. All incubations are performed singularly for each test compound. Each compound is incubated for 0, 5, 15, 30 and 45 min. The control (minus NADPH) is incubated for 45 min only. The reactions are stopped by transferring 20 μL of incubate to 60 μL MeOH at the appropriate time points. The termination plates are centrifuged at 2,500 rpm for 20 min at 4° C. to precipitate the protein. Following protein precipitation, the sample supernatants are combined in cassettes of up to 4 compounds, internal standard is added and samples analysed by LC-MS/MS. From a plot of In peak area ratio (compound peak area/internal standard peak area) against time, the gradient of the line is determined. Subsequently, half-life and intrinsic clearance are calculated.

The nature of data set [3]: Liver microsomal stability, human. It is filed as in vitro ADME. Conditions: pooled liver microsomes, pH 7.4; human liver microsomes 0.5 mg/mL; 3 μM compound; read-out: Liver Microsoinal Stability t1/2, human. As for the experimental part:
as §1

Molecules are shown by their SMILES.

T1 sequence (P03420 26-109): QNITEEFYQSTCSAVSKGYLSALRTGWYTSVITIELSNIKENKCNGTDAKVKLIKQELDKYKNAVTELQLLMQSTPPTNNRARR
T1 sequence (P03420 137-574): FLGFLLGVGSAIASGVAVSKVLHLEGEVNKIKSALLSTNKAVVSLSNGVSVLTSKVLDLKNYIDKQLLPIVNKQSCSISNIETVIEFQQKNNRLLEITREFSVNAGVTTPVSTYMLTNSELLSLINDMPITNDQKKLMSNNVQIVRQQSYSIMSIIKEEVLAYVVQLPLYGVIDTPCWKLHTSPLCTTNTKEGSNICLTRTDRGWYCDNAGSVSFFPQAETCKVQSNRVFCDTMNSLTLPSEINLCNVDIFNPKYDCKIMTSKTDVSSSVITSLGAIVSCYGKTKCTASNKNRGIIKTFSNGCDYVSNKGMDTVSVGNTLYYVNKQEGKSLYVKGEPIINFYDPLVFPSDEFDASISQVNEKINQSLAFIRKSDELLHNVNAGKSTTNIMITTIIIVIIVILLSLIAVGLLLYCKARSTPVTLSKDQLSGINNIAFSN

What is called IC50 is the point on the concentration scale where inhibition reaches its midpoint. A high value points to lower potency. As usually defined, the Papp A→B is how fast a substance crosses the layer from the apical side. Read a low Papp A→B as slow passage. By Papp B→A is commonly meant how fast a substance crosses the layer from the basolateral side. `CCS(=O)(=O)N1CCC(n2c(CN3C(=O)C4(CC4)c4ccc(F)cc43)nc3cc(Cl)ccc32)CC1` [Compound 35, 1′-({5-Chloro-1-[1-(ethanesulfonyl)piperidin-4-yl]-1H-1,3-benzodiazol-2-yl}methyl)-6′-fluoro-1′,2′-dihydrospiro[cyclopropane-1,3′-indole]-2′-one] yielded an IC50 in data set [1] of 5 nM. In the data set with MDR1, this compound returned an apical-to-basolateral permeability (Papp A→B) at 60 min, 10 μM of 12.7 ×10⁻⁶ cm/s and a Papp B→A at 60 min, 10 μM of 22.8 ×10⁻⁶ cm/s. In addition, the half-life at 3 μM in data set [2] worked out at 5.5 min. The half-life at 3 μM in data set [3] worked out at 34.6 min.
`CS(=O)(=O)N1CCC(n2c(CN3C(=O)C4(CC4)c4ccc(F)cc43)nc3cc(Cl)ccc32)CC1` [Compound 33, 1′-{[5-Chloro-1-(1-methanesulfonylpiperidin-4-yl)-1H-1,3-benzodiazol-2-yl]methyl}-6′-fluoro-1′,2′-dihydrospiro[cyclopropane-1,3′-indole]-2′-one] returned an IC50 in data set [1] of 3.3 nM. Also, the Papp A→B at 60 min, 10 μM in the data set with MDR1 was 12.4 ×10⁻⁶ cm/s. In addition, the Papp B→A at 60 min, 10 μM with MDR1 worked out at 35.5 ×10⁻⁶ cm/s. For the same compound, the figures for the half-life at 3 μM in data set [2] and in data set [3] were 14.8 min and 486 min, respectively.
